Laboratory results: article PMC2923275 (Biochemical pharmacology, 2010)

Assays:
[1] = tested on: wild type (RH) strain of T. gondii; test: Anti-toxoplasmic activity in tissue culture; format: cell-based, Toxoplasma gondii; conditions: wild type (RH) in human fibroblasts
[2] = tested on: uninfected human foreskin fibroblasts; test: Host toxicity, MTT assay on uninfected host cells; conditions: infection: None
[3] = tested on: adenosine kinase deficient (TgAK^-3) strain of T. gondii; test: Anti-toxoplasmic activity in tissue culture; format: cell-based, Toxoplasma gondii; conditions: TgAK^-3 in human fibroblasts

SMILES | percent survival of parasite ([1]; 5 μM compound) [%] | percent survival of parasite ([1]; 10 μM compound) [%] | percent survival of parasite ([1]; 25 μM compound) [%] | percent survival of parasite ([1]; 50 μM compound) [%] | host-toxicity (survival of uninfected host cells) ([2]; 5 μM compound) [%] | host-toxicity (survival of uninfected host cells) ([2]; 10 μM compound) [%] | host-toxicity (survival of uninfected host cells) ([2]; 25 μM compound) [%] | host-toxicity (survival of uninfected host cells) ([2]; 50 μM compound) [%] | percent survival of parasite ([3]; 5 μM compound) [%] | percent survival of parasite ([3]; 10 μM compound) [%] | percent survival of parasite ([3]; 25 μM compound) [%] | percent survival of parasite ([3]; 50 μM compound) [%]
OCC1CC(n2cnc3c(SCc4ccc(Br)cc4)ncnc32)C(O)C1O (stereo not shown) [Compound 10, Carbocyclic 6-(p-bromobenzylthio)inosine] | 77.1 | 47.3 | 1.2 | 1.0 | 100 | 100 | 100 | 100 | 100 | 100 | 100 | 100
OCC1CC(n2cnc3c(SCc4ccc(Cl)c(Cl)c4)ncnc32)C(O)C1O (stereo not shown) [Compound 19, Carbocyclic 6-(m,p-dichlorobenzylthio)inosine] | 59.7 | 17.8 | 8.3 | 1.5 | 100 | 100 | 100 | 73.1 | 100 | 100 | 100 | 100
OCC1CC(n2cnc3c(SCc4ccc(Cl)cc4)ncnc32)C(O)C1O (stereo not shown) [Compound 9, Carbocyclic 6-(p-chlorobenzylthio)inosine] | 72.9 | 11.9 | 0.0 | 0.0 | 100 | 100 | 100 | 100 | 100 | 100 | 100 | 100
Nc1ccc(S(=O)(=O)Nc2ncccn2)cc1 [Compound 23, Sulfadiazine, reference compound] | 92.9 | 58.0 | 53.4 | 46.3 | 98.2 | 99.8 | 99.8 | 102 |  |  |  | 
OCC1CC(n2cnc3c(SCc4ccccc4Cl)ncnc32)C(O)C1O (stereo not shown) [Compound 3, Carbocyclic 6-(o-chlorobenzylthio)inosine] | 79.5 | 48.8 | 9.8 | 2.2 | 100 | 100 | 100 | 100 | 100 | 100 | 100 | 100
O=[N+]([O-])c1ccc(CSc2ncnc3c2ncn3C2CC(CO)C(O)C2O)cc1 (stereo not shown) [Compound 12, Carbocyclic 6-(p-nitrobenzylthio)inosine] | 100 | 97.6 | 44.2 | 16.8 | 100 | 100 | 100 | 100 | 100 | 100 | 100 | 100
OCC1CC(n2cnc3c(SCc4c(F)cccc4Cl)ncnc32)C(O)C1O (stereo not shown) [Compound 20, Carbocyclic 6-(o-chloro-o-fluorobenzylthio)inosine] | 56.3 | 15.6 | 3.7 | 0.0 | 100 | 100 | 100 | 100 | 100 | 100 | 100 | 100
Cc1cccc(CSc2ncnc3c2ncn3C2CC(CO)C(O)C2O)c1 (stereo not shown) [Compound 5, Carbocyclic 6-(m-methylbenzylthio)inosine] | 88.3 | 64.7 | 13.7 | 1.2 | 100 | 100 | 100 | 96.1 | 100 | 100 | 100 | 100
COC(=O)c1ccc(CSc2ncnc3c2ncn3C2CC(CO)C(O)C2O)cc1 (stereo not shown) [Compound 14, Carbocyclic 6-(p-methoxycarbonylbenzylthio)inosine] | 53.9 | 6.3 | 1.5 | 0.0 | 100 | 99.4 | 88.7 | 87.1 | 100 | 100 | 100 | 100
Cc1ccccc1CSc1ncnc2c1ncn2C1CC(CO)C(O)C1O (stereo not shown) [Compound 4, Carbocyclic 6-(o-methylbenzylthio)inosine] | 82.7 | 45.4 | 7.6 | 0.0 | 100 | 100 | 100 | 99.2 | 100 | 100 | 100 | 100
OCC1CC(n2cnc3c(SCc4ccc(OC(F)(F)F)cc4)ncnc32)C(O)C1O (stereo not shown) [Compound 16, Carbocyclic 6-(p-trifluoromethoxybenzylthio)inosine] | 87.3 | 53.6 | 8.1 | 0.0 | 100 | 98.2 | 96.7 | 89.3 | 100 | 100 | 100 | 100
CCc1nc(N)nc(N)c1-c1ccc(Cl)cc1 [Compound 24, Pyrimethamine, reference compound] | 98.9 | 55.3 | 25.1 | 23.2 | 101 | 100 | 108 | 108 |  |  |  | 
